Test results: US20250129062A1, “AMORPHOUS SUBSTANCES, CRYSTALS, PHARMACEUTICAL COMPOSITIONS, PREPARATION METHODS AND USES OF THIOHYDANTOIN COMPOUND OR PHARMACEUTICALLY ACCEPTABLE SALT THEREOF” (SUZHOU KINTOR PHARMACEUTICALS, INC., priority 2021, published 2025)
Values after ≈ are worked out from the molar mass of the structure shown. Read-outs that look alike come from different tables or passages of the source.

Columns and labels:
[1] = Solubility of amorphous substance in solvent systems (supersaturated solution, oscillated 24 h at room temperature, HPLC); type: physicochemical; settings: for solubility at 24 h: thermodynamic from solid
Protocol: The amorphous substance of the compound of formula I was prepared into supersaturated solutions with different solvents, and oscillated under a room temperature condition (a constant temperature). After oscillating for 24 h, sampling was performed, and the content of the sample was detected by HPLC under condition 1.
Condition 1: • Chromatographic column: C18 (150 mm×4.6 mm×3.5 μm); • Mobile phase: binary mobile phase system, mobile phase A was 0.1% formic acid in water, mobile phase B was acetonitrile; • Elution time: 68 min; • Elution mode: gradient elution (in the gradient elution process, mobile phase A had the maximum volume percentage of 95% and the minimum volume percentage of 10%); • Detection wavelength: 270 nm.

[2] = Accelerated stability experiment of amorphous substance; type: physicochemical; settings: Acceleration
Protocol: Referring to ICH Q1A stability testing of new drug substances and products, the amorphous substance of the compound of formula I prepared in example 1 was subjected to a long-term stability experiment (experimental condition: 25±2° C., RH 60%=5%) and an accelerated stability experiment (experimental condition: 40±2° C., RH 75%=5%). The purity of the sample at different times was detected by HPLC under condition 2 to evaluate the physicochemical stability of the amorphous substance of the compound of formula I. The results were as shown in Table 18.
Condition 2: • Instruments: Agilent 1260; • Chromatographic column: C18 (150 mm×4.6 mm×3.5 μm); • column temperature: 45° C.; • Mobile phase: binary mobile phase system, mobile phase A was a 10 mM aqueous ammonium acetate solution (preparation method: ammonium acetate was added into purified water, and mixed evenly, and pH value was adjusted to 4.50±0.05 with acetic acid), mobile phase B was acetonitrile; • Elution mode: gradient elution, with specific procedures as shown in Table 17; • flow rate: 1.0 mL/min; • Injection volume: 5 μL; • Detection wavelength: 270 nm; • Data acquisition: OpenLab CDS2 software.

## Cc1ncsc1-c1ccc(CNC(=O)[C@@H]2C[C@@H](O)CN2C(=O)[C@@H](NC(=O)COCCCCOc2ccc(-c3ccc(N4C(=S)N(c5ccc(C#N)c(C(F)(F)F)c5F)C(=O)C4(C)C)cn3)cc2)C(C)(C)C)cc1
[1]; dehydrated alcohol-propylene glycol-water solvent mixture, aqueous with cosolvent or surfactant or cyclodextrin, Dehydrated alcohol 35%-propylene glycol 50%-water 15% (w/w), read-out: Solubility
  solubility at 24 h: > 189000 µg/mL
[1]; dehydrated alcohol-propylene glycol-water solvent mixture, aqueous with cosolvent or surfactant or cyclodextrin, Dehydrated alcohol 40%-propylene glycol 10%-water 50% (w/w), read-out: Solubility
  solubility at 24 h: 3020 µg/mL (≈ 2.89 mM)
[1]; dehydrated alcohol-propylene glycol-water solvent mixture, aqueous with cosolvent or surfactant or cyclodextrin, Dehydrated alcohol 40%-propylene glycol 20%-water 40% (w/w), read-out: Solubility
  solubility at 24 h: 19500 µg/mL (≈ 18.7 mM)
[1]; dehydrated alcohol-propylene glycol-water solvent mixture, aqueous with cosolvent or surfactant or cyclodextrin, Dehydrated alcohol 40%-propylene glycol 30%-water 30% (w/w), read-out: Solubility
  solubility at 24 h: 49800 µg/mL (≈ 47.7 mM)
[1]; dehydrated alcohol-propylene glycol-water solvent mixture, aqueous with cosolvent or surfactant or cyclodextrin, Dehydrated alcohol 40%-propylene glycol 40%-water 20% (w/w), read-out: Solubility
  solubility at 24 h: > 97600 µg/mL
[1]; dehydrated alcohol-propylene glycol-water solvent mixture, aqueous with cosolvent or surfactant or cyclodextrin, Dehydrated alcohol 50%-propylene glycol 10%-water 40% (w/w), read-out: Solubility
  solubility at 24 h: 77700 µg/mL (≈ 74.5 mM)
[1]; dehydrated alcohol-propylene glycol-water solvent mixture, aqueous with cosolvent or surfactant or cyclodextrin, Dehydrated alcohol 50%-propylene glycol 20%-water 30% (w/w), read-out: Solubility
  solubility at 24 h: > 77500 µg/mL
[1]; dehydrated alcohol-propylene glycol-water solvent mixture, aqueous with cosolvent or surfactant or cyclodextrin, Dehydrated alcohol 50%-propylene glycol 30%-water 20% (w/w), read-out: Solubility
  solubility at 24 h: > 69300 µg/mL
[1]; dehydrated alcohol-propylene glycol-water solvent mixture, aqueous with cosolvent or surfactant or cyclodextrin, Dehydrated alcohol 50%-propylene glycol 40%-water 10% (w/w), read-out: Solubility
  solubility at 24 h: > 67800 µg/mL
[1]; dehydrated alcohol-propylene glycol-water solvent mixture, organic solvent or mixture, Dehydrated alcohol 50%-propylene glycol 50%-water 00% (w/w), read-out: Solubility
  solubility at 24 h: > 96000 µg/mL
[1]; glycerin, organic solvent or mixture, solvent: Glycerin, read-out: 24 h solubility
  solubility at 24 h: 440 µg/mL (≈ 0.422 mM)
[1]; liquid paraffin, oil or lipid, solvent: Liquid paraffin, read-out: 24 h solubility
  solubility at 24 h: 10 µg/mL (≈ 0.00959 mM)
[1]; oleic acid, oil or lipid, solvent: Oleic acid, read-out: 24 h solubility
  solubility at 24 h: 1410 µg/mL (≈ 1.35 mM)
[1]; polyethylene glycol 400 (PEG400), organic solvent or mixture, solvent: Polyethylene glycol 400 (PEG400), read-out: 24 h solubility
  solubility at 24 h: 16000 µg/mL (≈ 15.4 mM)
[1]; propylene glycol, organic solvent or mixture, solvent: Propylene glycol, read-out: 24 h solubility
  solubility at 24 h: 12000 µg/mL (≈ 11.5 mM)
[1]; solvent mixture, aqueous with cosolvent or surfactant or cyclodextrin, Dehydrated alcohol 10%-PEG400 30%-water 60% (w/w), read-out: Solubility
  solubility at 24 h: 60 µg/mL (≈ 0.0575 mM)
[1]; solvent mixture, aqueous with cosolvent or surfactant or cyclodextrin, Dehydrated alcohol 10%-PEG400 40%-water 50% (w/w), read-out: Solubility
  solubility at 24 h: 280 µg/mL (≈ 0.268 mM)
[1]; solvent mixture, aqueous with cosolvent or surfactant or cyclodextrin, Dehydrated alcohol 10%-glycerin 10%-water 80% (w/w), read-out: Solubility
  solubility at 24 h: < 100 µg/mL
[1]; solvent mixture, aqueous with cosolvent or surfactant or cyclodextrin, Dehydrated alcohol 10%-glycerin 20%-water 70% (w/w), read-out: Solubility
  solubility at 24 h: < 100 µg/mL
[1]; solvent mixture, aqueous with cosolvent or surfactant or cyclodextrin, Dehydrated alcohol 10%-glycerin 30%-water 60% (w/w), read-out: Solubility
  solubility at 24 h: < 100 µg/mL
[1]; solvent mixture, aqueous with cosolvent or surfactant or cyclodextrin, Dehydrated alcohol 20%-glycerin 10%-water 70% (w/w), read-out: Solubility
  solubility at 24 h: < 100 µg/mL
[1]; solvent mixture, aqueous with cosolvent or surfactant or cyclodextrin, Dehydrated alcohol 20%-glycerin 20%-water 60% (w/w), read-out: Solubility
  solubility at 24 h: < 100 µg/mL
[1]; solvent mixture, aqueous with cosolvent or surfactant or cyclodextrin, Dehydrated alcohol 20%-glycerin 30%-water 50% (w/w), read-out: Solubility
  solubility at 24 h: < 100 µg/mL
[1]; solvent mixture, aqueous with cosolvent or surfactant or cyclodextrin, Dehydrated alcohol 20%-glycerin 40%-water 40% (w/w), read-out: Solubility
  solubility at 24 h: < 100 µg/mL
[1]; solvent mixture, aqueous with cosolvent or surfactant or cyclodextrin, Dehydrated alcohol 20%-glycerin 50%-water 30% (w/w), read-out: Solubility
  solubility at 24 h: < 100 µg/mL
[1]; solvent mixture, aqueous with cosolvent or surfactant or cyclodextrin, Dehydrated alcohol 30%-glycerin 10%-water 60% (w/w), read-out: Solubility
  solubility at 24 h: 80 µg/mL (≈ 0.0767 mM)
[1]; solvent mixture, aqueous with cosolvent or surfactant or cyclodextrin, Dehydrated alcohol 30%-glycerin 20%-water 50% (w/w), read-out: Solubility
  solubility at 24 h: 140 µg/mL (≈ 0.134 mM)
[1]; solvent mixture, aqueous with cosolvent or surfactant or cyclodextrin, Dehydrated alcohol 30%-glycerin 30%-water 40% (w/w), read-out: Solubility
  solubility at 24 h: 650 µg/mL (≈ 0.623 mM)
[1]; solvent mixture, aqueous with cosolvent or surfactant or cyclodextrin, Dehydrated alcohol 30%-glycerin 40%-water 30% (w/w), read-out: Solubility
  solubility at 24 h: 2260 µg/mL (≈ 2.17 mM)
[1]; solvent mixture, aqueous with cosolvent or surfactant or cyclodextrin, Dehydrated alcohol 30%-glycerin 50%-water 20% (w/w), read-out: Solubility
  solubility at 24 h: 4080 µg/mL (≈ 3.91 mM)
[1]; solvent mixture, aqueous with cosolvent or surfactant or cyclodextrin, Dehydrated alcohol 40%-glycerin 10%-water 50% (w/w), read-out: Solubility
  solubility at 24 h: 1580 µg/mL (≈ 1.51 mM)
[1]; solvent mixture, aqueous with cosolvent or surfactant or cyclodextrin, Dehydrated alcohol 40%-glycerin 20%-water 40% (w/w), read-out: Solubility
  solubility at 24 h: 3400 µg/mL (≈ 3.26 mM)
[1]; solvent mixture, aqueous with cosolvent or surfactant or cyclodextrin, Dehydrated alcohol 40%-glycerin 30%-water 30% (w/w), read-out: Solubility
  solubility at 24 h: 8840 µg/mL (≈ 8.47 mM)
[1]; solvent mixture, aqueous with cosolvent or surfactant or cyclodextrin, Dehydrated alcohol 40%-glycerin 40%-water 20% (w/w), read-out: Solubility
  solubility at 24 h: 14700 µg/mL (≈ 14.1 mM)
[1]; solvent mixture, aqueous with cosolvent or surfactant or cyclodextrin, Dehydrated alcohol 40%-glycerin 50%-water 10% (w/w), read-out: Solubility
  solubility at 24 h: 40000 µg/mL (≈ 38.4 mM)
[1]; solvent mixture, aqueous with cosolvent or surfactant or cyclodextrin, Dehydrated alcohol 50%-PEG400 10%-water 40% (w/w), read-out: Solubility
  solubility at 24 h: 25100 µg/mL (≈ 24.1 mM)
[1]; solvent mixture, aqueous with cosolvent or surfactant or cyclodextrin, Dehydrated alcohol 50%-PEG400 20%-water 30% (w/w), read-out: Solubility
  solubility at 24 h: > 51500 µg/mL
[1]; solvent mixture, aqueous with cosolvent or surfactant or cyclodextrin, Dehydrated alcohol 50%-glycerin 10%-water 40% (w/w), read-out: Solubility
  solubility at 24 h: 15200 µg/mL (≈ 14.5 mM)
[1]; solvent mixture, aqueous with cosolvent or surfactant or cyclodextrin, Dehydrated alcohol 50%-glycerin 20%-water 30% (w/w), read-out: Solubility
  solubility at 24 h: 23900 µg/mL (≈ 22.9 mM)
[1]; solvent mixture, aqueous with cosolvent or surfactant or cyclodextrin, Dehydrated alcohol 50%-glycerin 30%-water 20% (w/w), read-out: Solubility
  solubility at 24 h: > 43600 µg/mL
[1]; solvent mixture, aqueous with cosolvent or surfactant or cyclodextrin, Dehydrated alcohol 50%-glycerin 40%-water 10% (w/w), read-out: Solubility
  solubility at 24 h: > 64600 µg/mL
[1]; solvent mixture, organic solvent or mixture, Dehydrated alcohol 50%-glycerin 50%-water 00% (w/w), read-out: Solubility
  solubility at 24 h: > 74100 µg/mL
[1]; solvent: Dehydrated alcohol
  24 h solubility: >54480 µg/mL
[1]; solvent: Liquid paraffin, listed as amorphous substance of the compound of formula I
  24 h solubility: extremely low
[1]; solvent: Water, listed as amorphous substance of the compound of formula I
  24 h solubility: basically insoluble
[2]; 1 months
  purity (HPLC): 99.41%
[2]; 3 months
  purity (HPLC): 99.35%
[2]; 6 months
  purity (HPLC): 99.36%
[2]; 40±2° C., RH 75%=5%, 0 month
  purity (HPLC): 99.25%
